Assays:
[1] = target: T1, WRN helicase (aa N517-P1238) (Homo sapiens, UniProt Q14191); assay: WRN ATPase assay (DNA dependent ATP hydrolysis, ADP-Glo); assay type: biochemical; details: 3 hours pre-incubation, 300 micromolar ATP, FLAP26 DNA; geometric mean of at least 2
T1 construct: The core helicase motif of the WRN protein (aa N517-P1238) was produced for this assay; His (N); ZZ (N); 3C protease cleavage site (N); made in house; host or cells: Sf21 insect cells (baculovirus; virus and BIICs made in SF9)
Method in brief: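 DNA-dependent ATP hydrolysis detected as ADP by ADP-Glo luminescence, using 300 μM ATP, 0.2 nM FLAP26 substrate and 10 nM WRN aa N517-P1238 (Tris pH 7.5 buffer, 2 mM MgCl2, 50 mM NaCl). IC50s fitted from normalized duplicate half-log dilutions; reported as geometric means of at least 2 replicates.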

[2] = system: DLD1-WRN-KO cells; assay: Proliferation assay DLD1-WRN-KO (CellTiterGlo, off-target effects); assay type: cell-based; details: 96 hours, geometric mean of at least 2
Method in brief: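 DLD1 cells with CRISPR knockout of WRN were exposed overnight-seeded to eight 3-fold compound dilutions (0.1% DMSO) for 96 h at 37 °C. Viability was read as ATP by CellTiterGlo luminescence against a day-0 plate, giving GI50 and residual viability at top concentration.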

[3] = system: SW48 cells; assay: Proliferation assay SW48 (CellTiterGlo); assay type: cell-based; details: Homo sapiens, SW48, 96 h, SW48 colon carcinoma cells, 96 hours, CellTiterGlo; geometric mean of at least 2; read-out: Proliferation Assay SW48 GI50
Method in brief: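 SW48 cells, 2,000/well, treated after overnight seeding with eight 3-fold compound dilutions (0.1% DMSO) for 96 hours at 37° C. Viability read as ATP by CellTiterGlo luminescence, normalised to a day-0 plate and vehicle to give % growth; GI50 is geometric mean of ≥2 independent replicates.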

T1 sequence (Q14191 517-1238): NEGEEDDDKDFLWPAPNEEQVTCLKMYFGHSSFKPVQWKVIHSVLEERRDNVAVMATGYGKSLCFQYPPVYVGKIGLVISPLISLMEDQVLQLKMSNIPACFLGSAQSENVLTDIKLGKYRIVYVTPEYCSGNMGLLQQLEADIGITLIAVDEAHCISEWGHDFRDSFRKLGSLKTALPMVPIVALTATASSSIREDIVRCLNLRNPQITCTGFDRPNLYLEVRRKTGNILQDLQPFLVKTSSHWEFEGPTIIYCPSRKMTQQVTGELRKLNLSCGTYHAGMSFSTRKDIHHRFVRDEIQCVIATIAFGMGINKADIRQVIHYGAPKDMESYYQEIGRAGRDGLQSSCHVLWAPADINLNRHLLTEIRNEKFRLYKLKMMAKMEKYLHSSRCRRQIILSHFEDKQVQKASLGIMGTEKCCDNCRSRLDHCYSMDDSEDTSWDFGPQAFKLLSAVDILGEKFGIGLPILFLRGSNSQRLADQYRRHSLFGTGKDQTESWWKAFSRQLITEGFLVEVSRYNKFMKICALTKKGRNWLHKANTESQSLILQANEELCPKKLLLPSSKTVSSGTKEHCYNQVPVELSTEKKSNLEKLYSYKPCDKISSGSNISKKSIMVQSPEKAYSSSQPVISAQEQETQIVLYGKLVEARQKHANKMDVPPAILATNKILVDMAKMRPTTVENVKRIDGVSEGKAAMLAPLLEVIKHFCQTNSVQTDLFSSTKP

IC50 [1] [µM]	GI50 [2] [µM]	GI50 [3] [µM]	Structure (SMILES)
0.05	> 10	> 10	Cc1c(N2CCN(C(=O)c3cc(C#N)n[nH]3)CC2)c(=O)n2nc(C3=CCOCC3)nc2n1CC(=O)Nc1ccc(C(F)(F)F)cc1 [Example 164, 2-(6-(4-(3-cyano-1H-pyrazole-5-carbonyl)piperazin-1-yl)-2-(3,6-dihydro-2H-pyran-4-yl)-5-methyl-7-oxo-[1,2,4]triazolo[1,5-a]pyrimidin-4(7H)-yl)-N-(4-(trifluoromethyl)phenyl)acetamide]
0.1	> 10	> 10	Cc1c(N2CCN(C(=O)c3c[nH]c(=O)cn3)CC2)c(=O)n2nc(N3CCOCC3)nc2n1CC(=O)Nc1ccc(C(F)(F)F)cc1 [Example 166, 2-(5-methyl-2-morpholino-7-oxo-6-(4-(5-oxo-4,5-dihydropyrazine-2-carbonyl)piperazin-1-yl)-[1,2,4]triazolo[1,5-a]pyrimidin-4(7H)-yl)-N-(4-(trifluoromethyl)phenyl)acetamide]

Source: US20260250289A1, “BICYCLIC HETEROCYCLES AND THEIR USE AS WRN INHIBITORS” (Novartis AG, priority 2022, published 2026)
